From PubChem BioAssay AID330 (DTP/NCI, 2004)
Several values for one entry are separate records, joined by “and”; a condition that tells them apart may be missing. Identical values can stand only once. Toxic doses and inconclusive results are not listed. How the source made its calls: active means survival T/C of 150% or more; inactive means T/C below 125% in these data.

System: P388 leukemia ip, CD2F1 mice, survival T/C
Test: NCI In Vivo Anticancer Drug Screen. Data for tumor model P388 Leukemia (intraperitoneal) in CD2F1 (CDF1) mice
Settings: endpoint: median survival time, higher = longer survival
Method in brief: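 Mice carrying the transplanted tumor received test compound or vehicle. Survival was recorded in each group, and the value is the treated-group measurement divided by that of the vehicle-treated control group.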

Measured: T/C

COc1cc(/C=C/C(=O)NCCc2c[nH]c3ccc(O)cc23)ccc1O
inactive: dose: 6.25 mg/kg/injection, schedule: Q01DX005 (ip), vehicle: Klucel (hydroxypropylcellulose) (HPC) 96 % of control | dose: 12.5 mg/kg/injection, schedule: Q01DX005 (ip), vehicle: Klucel (hydroxypropylcellulose) (HPC) 95 % of control | dose: 25.0 mg/kg/injection, schedule: Q01DX005 (ip), vehicle: Klucel (hydroxypropylcellulose) (HPC) 87 % of control and 90 % of control | dose: 50.0 mg/kg/injection, schedule: Q01DX005 (ip), vehicle: Klucel (hydroxypropylcellulose) (HPC) 88 % of control | dose: 200.0 mg/kg/injection, schedule: Q01DX005 (ip), vehicle: Klucel (hydroxypropylcellulose) (HPC) 88 % of control

Cc1c(Cl)cccc1-n1c(=O)c2[nH]c3ccccc3sc=2c1=O
inactive: dose: 60.0 mg/kg/injection, schedule: Q01DX005 (ip), vehicle: saline with Tween-80 100 % of control | dose: 120.0 mg/kg/injection, schedule: Q01DX005 (ip), vehicle: saline with Tween-80 92 % of control | dose: 240.0 mg/kg/injection, schedule: Q01DX005 (ip), vehicle: saline with Tween-80 97 % of control

CC1C/C=C\COC(=O)CC(C)(C)CC1=O (centres undefined)
inactive: dose: 100.0 mg/kg/injection, schedule: Q04DX003 (ip), vehicle: saline 99 % of control | dose: 200.0 mg/kg/injection, schedule: Q04DX003 (ip), vehicle: saline 99 % of control | dose: 400.0 mg/kg/injection, schedule: Q04DX003 (ip), vehicle: saline 95 % of control

N#CC(c1cc2c(cc1Br)OCO2)N1CCCC1 (centres undefined)
inactive: dose: 100.0 mg/kg/injection, schedule: Q01DX001 (ip), vehicle: Klucel (hydroxypropylcellulose) (HPC) 100 % of control | dose: 200.0 mg/kg/injection, schedule: Q01DX001 (ip), vehicle: Klucel (hydroxypropylcellulose) (HPC) 101 % of control | dose: 400.0 mg/kg/injection, schedule: Q01DX001 (ip), vehicle: Klucel (hydroxypropylcellulose) (HPC) 99 % of control
